Assay results: patent US6395738B1, “Benzofuran derivatives” (Kyowa Hakko Kogyo Co., Ltd., priority 1997, dated 2002)

Tests used:
TNF α = assay: Inhibitory activity on production of TNF α in mouse model with LPS-induced sepsis; type: in vivo, BALB/c male mice; settings: Dose (mg) 30; orally administered 90 minutes before LPS i.v.; serum TNF α by ELISA 1 hour after LPS

SMILES	melting point [°C]	Ratio of inhibition (%) of TNF α production (TNF α) [%]
COc1ccc(CCc2c(Cl)cncc2Cl)c2cc(C(=O)N3CCN(C)CC3)oc12.O=C(O)/C=C/C(=O)O	186 to 187	
COc1ccc(CCc2c(Cl)cncc2Cl)c2cc(C(=O)N3CCN(CCO)CC3)oc12.O=C(O)/C=C/C(=O)O	184 to 185	
COc1ccc(C(=O)Nc2c(Cl)cncc2Cl)c2cc(C(=O)N3CCNCC3)oc12 [Compound 12, 4-(3,5-Dichloro-4-pyridyl)carbamoyl-7-methoxy-2-(1-piperazinyl)carbonylbenzofuran]		27
CCN1CCN(c2cc3c(C(=O)Cc4c(Cl)cncc4Cl)ccc(C(=O)OC)c3o2)CC1.O=C(O)/C=C/C(=O)O [Compound 15, 4-[2-(3,5-Dichloro-4-pyridyl)-1-oxoethyl]-2-(4-ethyl-1-piperazinyl)-7-methoxycarbonylbenzofuran Monofumarate]	196 to 198	61
COc1ccc(C(=O)Cc2c(Cl)cncc2Cl)c2cc(C(=O)N3CCN(C(C)C)CC3)oc12.O=C(O)/C=C/C(=O)O [Compound 16, 4-[2-(3,5-Dichloro-4-pyridyl)-1-oxoethyl]-2-(4-isopropyl-1-piperazinyl)carbonyl-7-methoxybenzofuran Monofumarate]	195 to 196	67
CCOCCN1CCN(C(=O)c2cc3c(C(=O)Cc4c(Cl)cncc4Cl)ccc(OC)c3o2)CC1.O=C(O)/C=C/C(=O)O [Compound 17, 4-[2-(3,5-Dichloro-4-pyridyl)-1-oxoethyl]-2-(4-ethoxyethyl-1-piperazinyl)carbonyl-7-methoxybenzofuran Monofumarate]	184 to 185	62
COc1ccc(C(=O)Cc2c(Cl)cncc2Cl)c2cc(C(=O)N3CCN(C(C)CO)CC3)oc12 (centres unmarked) [Compound 18, 4-[2-(3,5-Dichloro-4-pyridyl)-1-oxoethyl]-2-[4-(1-hydroxy-2-propyl)-1-piperazinyl]carbonyl-7-methoxybenzofuran]	187 to 189	66
CCC(CO)N1CCN(C(=O)c2cc3c(C(=O)Cc4c(Cl)cncc4Cl)ccc(OC)c3o2)CC1 (centres unmarked) [Compound 19, 4-[2-(3,5-Dichloro-4-pyridyl)-1-oxoethyl]-2-[4-(1-hydroxy-2-butyl)-1-piperazinyl]carbonyl-7-methoxybenzofuran]	150 to 152	68
COc1ccc(C(=O)Cc2c(Cl)cncc2Cl)c2cc(C(=O)N3CCN(CCCO)CC3)oc12 [Compound 20, 4-[2-(3,5-Dichloro-4-pyridyl)-1-oxoethyl]-2-[4-(3-hydroxypropyl)-1-piperazinyl]carbonyl-7-methoxybenzofuran]	162 to 163	40
COc1ccc(C(=O)Cc2c(Cl)cncc2Cl)c2cc(C(=O)N3CCN(CCCCO)CC3)oc12 [Compound 21, 4-[2-(3,5-Dichloro-4-pyridyl)-1-oxoethyl]-2-[4-(4-hydroxybutyl)-1-piperazinyl]carbonyl-7-methoxybenzofuran]	120 to 121	28
COc1ccc(C(=O)Cc2c(Cl)cncc2Cl)c2cc(C(=O)N3CCN(CCOCCO)CC3)oc12 [Compound 23, 4-[2-(3,5-Dichloro-4-pyridyl)-1-oxoethyl]-2-{4-[2-(2-hydroxyethoxy)ethyl]-1-piperazinyl}carbonyl-7-methoxybenzofuran]	132 to 133	
COc1ccc(C(=O)Cc2c(Cl)cncc2Cl)c2cc(C(=O)N3CCNCC3)oc12.Cl [Compound 24, 4-[2-(3,5-Dichloro-4-pyridyl)-1-oxoethyl]-2-(1-piperazinyl)carbonyl-7-methoxybenzofuran Monohydrochloride]		47
COc1ccc(C(=O)Cc2c(Cl)cncc2Cl)c2cc(C(=O)N3CC(C)N(CCO)C(C)C3)oc12 (centres unmarked) [Compound 26, 4-[2-(3,5-Dichloro-4-pyridyl)-1-oxoethyl]-2-(3,5-dimethyl-4-hydroxyethyl-1-piperazinyl)carbonyl-7-methoxybenzofuran]	187 to 188	
